Measured values as given in the NIST ThermoML archive (doi:10.1021/je050514j).

Test: xn = mol fraction of the nth substance listed
Conditions: 313.15 K, Fluid (supercritical or subcritical phases)

CCOC(C)=O [ethyl acetate] + O=C=O
mass density [kg/m3]
Conditions | 1000 kPa | 2000 kPa | 3000 kPa | 4000 kPa | 5000 kPa | 6000 kPa | 7000 kPa | 8000 kPa | 9000 kPa | 10000 kPa
x2 = 0 | 876.9 | 878 | 878.9 | 880 | 881 | 881.9 | 882.9 | 883.9 | 884.9 | 885.9
x2 = 0.1 | 880.2 | 881.4 | 882.5 | 883.7 | 884.7 | 885.9 | 887 | 888 | 889.1 | 890.1
x2 = 0.2 | – | 884.1 | 885.4 | 886.7 | 887.9 | 889.2 | 890.4 | 891.6 | 892.7 | 893.9
x2 = 0.3 | – | 886.2 | 887.6 | 889.1 | 890.5 | 891.9 | 893.3 | 894.6 | 896 | 897.2
x2 = 0.4 | – | – | 888.8 | 890.6 | 892.2 | 893.9 | 895.4 | 897 | 898.6 | 900
x2 = 0.5 | – | – | – | 889.9 | 891.9 | 893.9 | 895.8 | 897.7 | 899.6 | 901.4
x2 = 0.6 | – | – | – | – | – | 890.1 | 892.6 | 895 | 897.4 | 899.7
x2 = 0.7 | – | – | – | – | – | 879.2 | 882.7 | 886.2 | 889.4 | 892.5
x2 = 0.8 | – | – | – | – | – | – | 858.2 | 863.7 | 869 | 873.9
x2 = 0.9 | – | – | – | – | – | – | – | 800.6 | 813 | 823.7
x2 = 0.95 | – | – | – | – | – | – | – | – | 745.6 | 767.4
